# Where a SMILES comes first, the peptide text is derived from it. [ ]: non-standard residue; d: D form.
# Columns and labels:
# Type in all cases: cell-based
# [1] = system: clinical strains of Proteus mirabilis; assay: MIC, microdilution, clinical strains; conditions: 0.02% BSA, 0.2% acetic acid
# Procedure, shortened: (§1)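 Overnight MH agar colonies were suspended in MH broth to 5.0×10^5 cfu/ml, mixed with serial peptide dilutions (0.125–128 μg/ml) and incubated at 37° C for 20 to 24 hours. Yeast MICs were run the same way in potato dextrose broth, and wells were scored visually.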
# [2] = system: clinical strains of Serratia marcescens; assay: MIC, microdilution, clinical strains; conditions: 0.02% BSA, 0.2% acetic acid
# Procedure, shortened: as §1
# [3] = system: clinical strains of K. pneumoniae; assay: MIC, microdilution, clinical strains; conditions: 0.02% BSA, 0.2% acetic acid
# Procedure, shortened: as §1
# [4] = system: clinical strains of S. pneumoniae; assay: MIC, microdilution, clinical strains; conditions: 0.02% BSA, 0.2% acetic acid
# Procedure, shortened: as §1
# [5] = system: clinical strains of P. aeruginosa; assay: MIC, microdilution, clinical strains; conditions: 0.02% BSA, 0.2% acetic acid
# Procedure, shortened: as §1
# [6] = system: clinical strains of E. coli; assay: MIC, microdilution, clinical strains; conditions: microdilution, Muller Hinton broth-cation adjusted, 0.02% BSA, 0.2% acetic acid
# Procedure, shortened: as §1
# [7] = system: clinical strains of S. aureus; assay: MIC, microdilution, clinical strains; conditions: 0.02% BSA, 0.2% acetic acid
# Procedure, shortened: as §1
# [8] = system: clinical strains of E. cloacae; assay: MIC, microdilution, clinical strains; conditions: 0.02% BSA, 0.2% acetic acid
# Procedure, shortened: as §1
# [9] = system: clinical strains of A. johnsonii; assay: MIC, microdilution, clinical strains; parameters: unit: μg/ml; conditions: Acinetobacter johnsonii strain 1, Muller Hinton broth-cation adjusted, 0.02% BSA, 0.2% acetic acid
# Procedure, shortened: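 Visual growth inhibition defined the MIC in a microdilution assay where fungal strains were cultured in potato dextrose broth instead of MH broth. Cell density was set to 5.0×10^5 cfu/ml, and incubation lasted 20–24 h at 37° C across a 0.125–128 μg/ml series.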
# [10] = system: clinical strains of Acinetobacter baumannii; assay: MIC, microdilution, clinical strains; parameters: unit: μg/ml; conditions: 0.02% BSA, 0.2% acetic acid
# Procedure, shortened: as §1
# [11] = system: C. quillermondiae; assay: MIC, clinical yeast strains; conditions: clinical yeast strain 1; D-form peptide; concentrations tested 0.125 to 128 μg/ml
# Procedure, shortened: (§2)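 MIC = lowest peptide concentration without visual growth after 20–24 h at 37° C. Range 0.125–128 μg/ml, inoculum 5.0×10^5 cfu/ml, microdilution format. Antifungal tests used potato dextrose broth; bacterial tests used MH broth.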
# [12] = system: C. parapsilosis; assay: MIC, clinical yeast strains; conditions: D-form peptide, concentrations tested 0.125 to 128 μg/ml
# Procedure, shortened: as §2
# [13] = system: C. glabrata; assay: MIC, clinical yeast strains; conditions: D-form peptide, concentrations tested 0.125 to 128 μg/ml
# Procedure, shortened: as §2
# [14] = system: Candida albicans; assay: MIC, clinical yeast strains; conditions: D-form peptide, concentrations tested 0.125 to 128 μg/ml
# Procedure, shortened: as §2
smiles,measurement,setting,value
CC[C@@H](C)[C@@H](NC(=O)[C@@H](CCSC)NC(=O)[C@@H](C)NC(=O)[C@@H](CCCNC(=N)N)NC(=O)[C@@H](Cc1c[nH]c2ccccc12)NC(=O)[C@@H](CCCCN)NC(=O)[C@H](N)CCCNC(=N)N)C(=O)N[C@H](CCCNC(=N)N)C(=O)N[C@H](CC(C)C)C(=O)N[C@H](Cc1c[nH]cn1)C(=O)N[C@H](C)C(=O)N[C@H](CCCCN)C(=O)N[C@H](Cc1c[nH]c2ccccc12)C(=O)N[C@H](CC(C)C)C(=O)N[C@H](CCCNC(=N)N)C(=O)N[C@H](CCCCN)C(=O)O [Chain105D] (H-[dR][dK][dW][dR][dA][dM][dI][dR][dL][dH][dA][dK][dW][dL][dR][dK]-OH),Minimum inhibitory concentration,"[1]; Proteus mirabilis strain 1, Muller Hinton broth-cation adjusted",>128
same,Minimum inhibitory concentration,"[1]; Proteus mirabilis strain 2, Muller Hinton broth-cation adjusted",32
same,Minimum inhibitory concentration,"[1]; Proteus mirabilis strain 3, Muller Hinton broth-cation adjusted",64
same,Minimum inhibitory concentration,"[1]; Proteus mirabilis strain 4, Muller Hinton broth-cation adjusted",>128
same,Minimum inhibitory concentration,"[1]; Proteus mirabilis strain 5, Muller Hinton broth-cation adjusted",>128
same,Minimum inhibitory concentration,"[2]; Serratia marcescens strain 1, Muller Hinton broth-cation adjusted",128
same,Minimum inhibitory concentration,"[2]; Serratia marcescens strain 2, Muller Hinton broth-cation adjusted",128
same,Minimum inhibitory concentration,"[2]; Serratia marcescens strain 3, Muller Hinton broth-cation adjusted",128
same,Minimum inhibitory concentration,"[2]; Serratia marcescens strain 4, Muller Hinton broth-cation adjusted",128
same,Minimum inhibitory concentration,"[2]; Serratia marcescens strain 5, Muller Hinton broth-cation adjusted",128
same,Minimum inhibitory concentration,"[3]; Klebsiella pneumoniae strain 1, Muller Hinton broth-cation adjusted",4
same,Minimum inhibitory concentration,"[3]; Klebsiella pneumoniae strain 2, Muller Hinton broth-cation adjusted",2
same,Minimum inhibitory concentration,"[3]; Klebsiella pneumoniae strain 3, Muller Hinton broth-cation adjusted",4
same,Minimum inhibitory concentration,"[3]; Klebsiella pneumoniae strain 4, Muller Hinton broth-cation adjusted",4
same,Minimum inhibitory concentration,"[3]; Klebsiella pneumoniae strain 5, Muller Hinton broth-cation adjusted",2
same,Minimum inhibitory concentration,"[4]; Streptococcus pneumoniae strain 1, Muller Hinton broth-cation adjusted",4
same,Minimum inhibitory concentration,"[4]; Streptococcus pneumoniae strain 2, Muller Hinton broth-cation adjusted",2
same,Minimum inhibitory concentration,"[4]; Streptococcus pneumoniae strain 3, Muller Hinton broth-cation adjusted",2
same,Minimum inhibitory concentration,"[4]; Streptococcus pneumoniae strain 4, Muller Hinton broth-cation adjusted",4
same,Minimum inhibitory concentration,"[4]; Streptococcus pneumoniae strain 5, Muller Hinton broth-cation adjusted",2
same,Minimum inhibitory concentration,"[5]; Pseudomonas aeruginosa strain 1, Muller Hinton broth-cation adjusted",4
same,Minimum inhibitory concentration,"[5]; Pseudomonas aeruginosa strain 2, Muller Hinton broth-cation adjusted",4
same,Minimum inhibitory concentration,"[5]; Pseudomonas aeruginosa strain 3, Muller Hinton broth-cation adjusted",4
same,Minimum inhibitory concentration,"[5]; Pseudomonas aeruginosa strain 4, Muller Hinton broth-cation adjusted",4
same,Minimum inhibitory concentration,"[5]; Pseudomonas aeruginosa strain 5, Muller Hinton broth-cation adjusted",4
same,Minimum inhibitory concentration,[6]; Escherichia coli strain 1,1
same,Minimum inhibitory concentration,[6]; Escherichia coli strain 2,4
same,Minimum inhibitory concentration,[6]; Escherichia coli strain 3,1
same,Minimum inhibitory concentration,[6]; Escherichia coli strain 4,1
same,Minimum inhibitory concentration,[6]; Escherichia coli strain 5,2
same,Minimum inhibitory concentration,"[7]; Staphylococcus aureus strain 1, Muller Hinton broth-cation adjusted",2
same,Minimum inhibitory concentration,"[7]; Staphylococcus aureus strain 2, Muller Hinton broth-cation adjusted",2
same,Minimum inhibitory concentration,"[7]; Staphylococcus aureus strain 3, Muller Hinton broth-cation adjusted",2
same,Minimum inhibitory concentration,"[7]; Staphylococcus aureus strain 4, Muller Hinton broth-cation adjusted",2
same,Minimum inhibitory concentration,"[7]; Staphylococcus aureus strain 5, Muller Hinton broth-cation adjusted",2
same,Minimum inhibitory concentration,"[8]; Enterobacter cloacae strain 1, Muller Hinton broth-cation adjusted",2
same,Minimum inhibitory concentration,"[8]; Enterobacter cloacae strain 2, Muller Hinton broth-cation adjusted",2
same,Minimum inhibitory concentration,"[8]; Enterobacter cloacae strain 3, Muller Hinton broth-cation adjusted",2
same,Minimum inhibitory concentration,"[8]; Enterobacter cloacae strain 4, Muller Hinton broth-cation adjusted",2
same,Minimum inhibitory concentration,"[8]; Enterobacter cloacae strain 5, Muller Hinton broth-cation adjusted",1
same,Minimum inhibitory concentration,[9],4
same,Minimum inhibitory concentration,"[10]; Acinetobacter baumannii strain 1, Muller Hinton broth-cation adjusted",4
same,Minimum inhibitory concentration,"[10]; Acinetobacter baumannii strain 2, Muller Hinton broth-cation adjusted",4
same,Minimum inhibitory concentration,"[10]; Acinetobacter baumannii strain 3, Muller Hinton broth-cation adjusted",4
same,Minimum inhibitory concentration,"[10]; Acinetobacter baumannii strain 4, Muller Hinton broth-cation adjusted",2
same,Minimum inhibitory concentration,"[10]; Acinetobacter baumannii strain 5, Muller Hinton broth-cation adjusted",4
same,"Minimum inhibitory concentration, C. quillermondiae strain 1",[11],8
same,"Minimum inhibitory concentration, C. parapsilosis strain 1",[12]; clinical yeast strain 1,8
same,"Minimum inhibitory concentration, C. parapsilosis strain 2",[12]; clinical yeast strain 2,8
same,"Minimum inhibitory concentration, C. parapsilosis strain 3",[12]; clinical yeast strain 3,8
same,"Minimum inhibitory concentration, C. parapsilosis strain 4",[12]; clinical yeast strain 4,4
same,"Minimum inhibitory concentration, C. glabrata strain 1",[13]; clinical yeast strain 1,16
same,"Minimum inhibitory concentration, C. glabrata strain 2",[13]; clinical yeast strain 2,16
same,"Minimum inhibitory concentration, C. glabrata strain 3",[13]; clinical yeast strain 3,8
same,"Minimum inhibitory concentration, C. glabrata strain 4",[13]; clinical yeast strain 4,32
same,"Minimum inhibitory concentration, Candida albicans strain 1",[14]; clinical yeast strain 1,32
same,"Minimum inhibitory concentration, Candida albicans strain 2",[14]; clinical yeast strain 2,16
same,"Minimum inhibitory concentration, Candida albicans strain 3",[14]; clinical yeast strain 3,32
same,"Minimum inhibitory concentration, Candida albicans strain 4",[14]; clinical yeast strain 4,32
same,"Minimum inhibitory concentration, Candida albicans strain 5",[14]; clinical yeast strain 5,32
